Experiment [1] addresses menin protein (Homo sapiens (Human), UniProt O00255). The experiment can be described thus: biochemical. It is filed as binding. The note with it: FP competitive binding; menin protein 4 nM, FAM-MM2 probe 2 nM; read-out: Menin Binding Affinity IC50. In outline:
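Competitive fluorescence polarization assay using FAM-labelled MLL1 peptide probe FAM-MM2 (2 nM final) preincubated with menin (4 nM final) in PBS with 0.02% bovine γ-globulin, 4% DMSO and 0.01% Triton X-100. Compounds were added and incubated 30 min at room temperature. IC50 came from nonlinear regression of competition curves, with Ki also derived.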

Experiment [2] is described as follows: Cell growth inhibition, CellTiter-Glo Luminescent Cell Viability Assay. It counts as cell-based. In outline:
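Cells seeded at 2,000/well with serially diluted compound and cultured 4 days at 37 °C, 5% CO2. Viability read by CellTiter-Glo luminescence; IC50 derived from dose-response.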

Setting [3] is: MOLM-13, 96 h, read-out: Cell Growth Inhibition IC50 (μM) MOLM13, MOLM13 cells, 4 days, CellTiter-Glo.
The mark [4] stands for this setting: MV4-11, 96 h, read-out: Cell Growth Inhibition IC50 (μM) MV4, 11, MV4, 11 cells, 4 days, CellTiter-Glo.
[5] abbreviates: MOLM-13, 96 h, MOLM13 cells, 4 days, CellTiter-Glo, read-out: Cell Growth Inhibition IC50 (μM) MOLM13.
[6] abbreviates: MV4-11, 96 h, MV4, 11 cells, 4 days, CellTiter-Glo, read-out: Cell Growth Inhibition IC50 (μM) MV4, 11.

Where two headings read alike, the source gives them in different places.

menin protein, sequence (O00255 whole entry): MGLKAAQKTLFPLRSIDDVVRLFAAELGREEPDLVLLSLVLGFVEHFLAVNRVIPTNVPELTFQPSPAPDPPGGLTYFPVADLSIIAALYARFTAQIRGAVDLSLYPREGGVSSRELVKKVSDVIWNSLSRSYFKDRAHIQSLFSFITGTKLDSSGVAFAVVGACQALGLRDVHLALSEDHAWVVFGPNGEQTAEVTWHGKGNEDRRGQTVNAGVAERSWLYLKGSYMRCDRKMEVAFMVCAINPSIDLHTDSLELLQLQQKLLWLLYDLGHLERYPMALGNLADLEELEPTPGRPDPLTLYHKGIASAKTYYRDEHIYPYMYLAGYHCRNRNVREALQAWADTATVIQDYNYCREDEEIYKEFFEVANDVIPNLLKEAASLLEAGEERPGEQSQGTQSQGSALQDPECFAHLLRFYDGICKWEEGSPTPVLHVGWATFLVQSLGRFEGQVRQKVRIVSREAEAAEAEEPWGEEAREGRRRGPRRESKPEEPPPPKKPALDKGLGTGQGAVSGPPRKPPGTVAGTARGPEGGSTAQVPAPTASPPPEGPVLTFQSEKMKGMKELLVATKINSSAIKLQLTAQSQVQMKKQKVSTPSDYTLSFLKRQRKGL

On to `CC(=O)O[C@H]1CCC[C@@H]1C1(C2CCN(CC3CN(c4ccc(S(=O)(=O)C5CC5)cc4)C3)CC2)CN(C)Cc2ccc(F)cc21` (mixture of isomers) [compound 316, rac-(1S,2R)-2-(4-(1-((1-(4-(cyclopropylsulfonyl)phenyl)azetidin-3-yl)methyl)piperidin-4-yl)-6-fluoro-2-methyl-1,2,3,4-tetrahydroisoquinolin-4-yl)cyclopentyl acetate], for which the IC50 (commonly the midpoint of a concentration-inhibition curve) in experiment [1] worked out at 3 nM; in experiment [2] (setting [3]), 1.8 µM; in experiment [2] (setting [4]) it was 0.3 µM.

Turning to `CN(C)C(=O)N[C@H]1CCC[C@@H]1C(Cn1ccnc1)(c1ccccc1)C1CCN(CC2CN(c3ccc(S(=O)(=O)c4cnn(C)c4)cc3)C2)CC1` (mixture of isomers) [compound 376, rac-3-((1S,2R)-2-(2-(1H-imidazol-1-yl)-1-(1-((1-(4-((1-methyl-1H-pyrazol-4-yl)sulfonyl)phenyl)azetidin-3-yl)methyl)piperidin-4-yl)-1-phenylethyl)cyclopentyl)-1,1-dimethylurea], the half-inhibitory concentration (IC50) is 6 nM in experiment [1], greater than 10 µM in experiment [2] (setting [3]) and 10.5 ± 2.08 µM in experiment [2] (setting [4]).

On to `CCN1Cc2ccccc2C(C2CCCC2)(C2CCN(CC3CN(c4ccc(S(=O)(=O)C(F)(F)F)cc4)C3)CC2)C1` (stereo not drawn) [compound 145, 4-cyclopentyl-2-ethyl-4-(1-((1-(4-((trifluoromethyl)sulfonyl)phenyl)azetidin-3-yl)methyl)piperidin-4-yl)-1,2,3,4-tetrahydroisoquinoline], for which the concentration for half-maximal inhibition (IC50) stood at 15 nM in experiment [1], 3.3 ± 0.5 µM in experiment [2] (setting [5]) and 1.6 ± 0.8 µM in experiment [2] (setting [6]).

On to `CCN1Cc2ccccc2C(C2CCCC2)(C2CCN(CC3CN(c4ccc(S(=O)(=O)CC)cc4)C3)CC2)C1` (stereo not drawn) [compound 136, 4-cyclopentyl-2-ethyl-4-(1-((1-(4-(ethylsulfonyl)phenyl)azetidin-3-yl)methyl)piperidin-4-yl)-1,2,3,4-tetrahydroisoquinoline], for which the IC50 is 9 nM in experiment [1], 3.8 µM in experiment [2] (setting [5]) and 1.2 µM in experiment [2] (setting [6]).

In the case of `CC(=O)N[C@H]1CCC[C@@H]1C(C#N)(c1ccccc1)C1CCN(CC2CN(c3ccc(S(=O)(=O)c4ccncc4)cc3)C2)CC1` (mixture of isomers) [compound 263, rac-N-((1S,2R)-2-(cyano(phenyl)(1-((1-(4-(pyridin-4-ylsulfonyl)phenyl)azetidin-3-yl)methyl)piperidin-4-yl)methyl)cyclopentyl) acetamide], the IC50 in experiment [1] amounted to 10 nM; in experiment [2] (setting [3]) it was 1.4 µM; in experiment [2] (setting [4]), 0.254 µM.

For the molecule `CCN1Cc2ccccc2C(C2CCN(CC3CN(c4ccc(S(=O)(=O)c5ccccc5)cc4)C3)CC2)([C@H]2CCC[C@@H]2NC(=O)NC)C1` (mixture of isomers) [compound 290, rac-1-((1S,2R)-2-(2-ethyl-4-(1-((1-(4-(phenylsulfonyl)phenyl)azetidin-3-yl)methyl)piperidin-4-yl)-1,2,3,4-tetrahydroisoquinolin-4-yl)cyclopentyl)-3-methylurea], the IC50 in experiment [1] is 9 nM; in experiment [2] (setting [3]), 0.32 µM; in experiment [2] (setting [4]), 0.11 µM.

In the case of `CNC(=O)O[C@H]1CCC[C@@H]1C(C#N)(c1ccccc1)C1CCN(CC2CN(c3ccc(S(=O)(=O)c4ccn(C)n4)cc3)C2)CC1` (mixture of isomers) [compound 230, rac-(1S,2R)-2-(cyano(1-((1-(4-((1-methyl-1H-pyrazol-3-yl)sulfonyl)phenyl)azetidin-3-yl)methyl)piperidin-4-yl)(phenyl)methyl) cyclopentyl methylcarbamate], the IC50 amounted to 7 nM in experiment [1], 0.25 µM in experiment [2] (setting [3]) and 0.092 µM in experiment [2] (setting [4]).

Regarding `CCc1nccn1CC(c1ccccc1)(C1CCN(CC2CN(c3ccc(C#N)cc3)C2)CC1)[C@H]1CCC[C@@H]1OC(=O)NC` (mixture of isomers) [compound 408, rac-(1S,2R)-2-(1-(1-((1-(4-cyanophenyl)azetidin-3-yl)methyl)piperidin-4-yl)-2-(2-ethyl-1H-imidazol-1-yl)-1-phenylethyl)cyclopentyl methylcarbamate], the IC50 in experiment [1] was 3 nM; in experiment [2] (setting [3]), 0.017 ± 0.007 µM; in experiment [2] (setting [4]), 0.005 ± 0.002 µM.

As to `O=S(=O)(c1ccncc1)c1ccc(N2CC(CN3CCC(C4(C5CCCC5)CN(C5CCC5)Cc5ccccc54)CC3)C2)cc1` (stereo not drawn) [compound 49, 2-cyclobutyl-4-cyclopentyl-4-(1-((1-(4-(pyridin-4-ylsulfonyl)phenyl)azetidin-3-yl)methyl)piperidin-4-yl)-1,2,3,4-tetrahydroisoquinoline], the IC50 came to 9 nM in experiment [1], 4 µM in experiment [2] (setting [5]) and 0.898 µM in experiment [2] (setting [6]).

Turning to `CC(=O)N[C@H]1CCC[C@@H]1C(C#N)(c1ccccc1)C1CCN(CC2CN(c3ccc(S(=O)(=O)C4CC4)cc3)C2)CC1` (mixture of isomers) [compound 281, rac-N-((1S,2R)-2-(cyano(1-((1-(4-(cyclopropylsulfonyl)phenyl)azetidin-3-yl)methyl)piperidin-4-yl)(phenyl)methyl)cyclopentyl) acetamide], the IC50 was found to be 29 nM in experiment [1], 2.35 µM in experiment [2] (setting [3]) and 0.55 µM in experiment [2] (setting [4]).

For `CC(=O)O[C@H]1CCC[C@@H]1C1(C2CCN(CC3CN(c4ccc(S(=O)(=O)c5ccnc(C)c5)cc4)C3)CC2)CN(C)Cc2ccccc21` (mixture of isomers) [compound 201, rac-(1S,2R)-2-(2-methyl-4-(1-((1-(4-((2-methylpyridin-4-yl)sulfonyl)phenyl)azetidin-3-yl)methyl)piperidin-4-yl)-1,2,3,4-tetrahydroisoquinolin-4-yl)cyclopentyl acetate], the IC50 in experiment [1] amounted to 5 nM; in experiment [2] (setting [3]) it was 0.399 ± 0.153 µM; in experiment [2] (setting [4]), 0.09 ± 0.051 µM.

For `CNC(=O)O[C@H]1CCC[C@@H]1C(Cn1ccnc1)(c1cccc(F)c1)C1CCN(CC2CN(c3ccc(C#N)cc3)C2)CC1` (mixture of isomers) [compound 390, rac-(1S,2R)-2-(1-(1-((1-(4-cyanophenyl)azetidin-3-yl)methyl)piperidin-4-yl)-1-(3-fluorophenyl)-2-(1H-imidazol-1-yl)ethyl)cyclopentyl methylcarbamate], the IC50 in experiment [1] is 5 nM; in experiment [2] (setting [3]), 0.082 µM; in experiment [2] (setting [4]) it was 0.021 µM.

With `CCC(=O)O[C@H]1CCC[C@@H]1C(C#N)(c1ccccc1)C1CCN(CC2CN(c3ccc(S(=O)(=O)c4ccncc4)cc3)C2)CC1` (mixture of isomers) [compound 195, rac-(1S,2R)-2-(cyano(phenyl)(1-((1-(4-(pyridin-4-ylsulfonyl)phenyl)azetidin-3-yl)methyl)piperidin-4-yl)methyl)cyclopentyl propionate], the IC50 in experiment [1] was found to be 10 nM; in experiment [2] (setting [3]) it was 1.5 µM; in experiment [2] (setting [4]), 0.991 µM.

Turning to `CN1Cc2ccccc2C(C2CCCC2)(C2CCN(CCCOc3ccc(C#N)cc3)CC2)C1` (stereo not drawn) [compound 23, 4-(3-(4-(4-cyclopentyl-2-methyl-1,2,3,4-tetrahydroisoquinolin-4-yl)piperidin-1-yl)propoxy)benzonitrile], the IC50 is 54 nM in experiment [1], 5 µM in experiment [2] (setting [3]) and 1 ± 0.4 µM in experiment [2] (setting [4]).

Consider `CC(=O)O[C@H]1CCC[C@@H]1C1(C2CCN(CCCOc3ccc(C#N)cc3)CC2)CN(C)Cc2ccc(F)cc21` (mixture of isomers) [compound 314, rac-(1S,2R)-2-(4-(1-(3-(4-cyanophenoxy)propyl)piperidin-4-yl)-6-fluoro-2-methyl-1,2,3,4-tetrahydroisoquinolin-4-yl)cyclopentyl acetate], for which the IC50 is 31 nM in experiment [1], greater than 10 µM in experiment [2] (setting [3]) and 2.97 µM in experiment [2] (setting [4]).

With `CNC(=O)N[C@H]1CCC[C@@H]1C(C#N)(c1ccccc1)C1CCN(CC2CN(c3ccc(S(=O)(=O)c4ccncc4)cc3)C2)CC1` (mixture of isomers) [compound 269, rac-1-((1S,2R)-2-(cyano(phenyl)(1-((1-(4-(pyridin-4-ylsulfonyl)phenyl)azetidin-3-yl)methyl)piperidin-4-yl)methyl)cyclopentyl)-3-methylurea], the IC50 in experiment [1] amounted to 9 nM; in experiment [2] (setting [3]), 1.73 µM; in experiment [2] (setting [4]), 0.273 µM.

Take `c1cnc(N2CC(CN3CCC(C4(C5CCCC5)NCCc5ccccc54)CC3)C2)nc1` (stereo not drawn) [compound 111, 1-cyclopentyl-1-(1-((1-(pyrimidin-2-yl)azetidin-3-yl)methyl)piperidin-4-yl)-1,2,3,4-tetrahydroisoquinoline]: the IC50 worked out at 46200 nM in experiment [1], 96.2 µM in experiment [2] (setting [5]) and 14.4 µM in experiment [2] (setting [6]).

`CC(=O)N[C@H]1CCC[C@@H]1C1(C2CCN(CC3CN(c4ccc(S(=O)(=O)c5cnn(C)c5)cc4)C3)CC2)CNCc2ccccc21` (mixture of isomers) [compound 286, rac-N-((1S,2R)-2-(4-(1-((1-(4-((1-methyl-1H-pyrazol-4-yl)sulfonyl)phenyl)azetidin-3-yl)methyl)piperidin-4-yl)-1,2,3,4-tetrahydroisoquinolin-4-yl)cyclopentyl)acetamide]: the IC50 was 4 nM in experiment [1], 5.69 µM in experiment [2] (setting [3]) and 0.48 µM in experiment [2] (setting [4]).

Turning to `COC(=O)N[C@H]1CCC[C@@H]1C(C#N)(c1ccccc1)C1CCN(CCC#Cc2ccc(C#N)cc2)CC1` (mixture of isomers) [compound 404, methyl rac-((1S,2R)-2-(cyano(1-(4-(4-cyanophenyl)but-3-yn-1-yl)piperidin-4-yl)(phenyl)methyl)cyclopentyl) carbamate], the IC50 in experiment [1] is 212 nM; in experiment [2] (setting [3]) it was greater than 10 µM; in experiment [2] (setting [4]), greater than 10 µM.

Values taken from US10899738B2 (THE REGENTS OF THE UNIVERSITY OF MICHIGAN, priority 2016, dated 2021).
